Source: patent publication US7030121B2, “Pyrazolopyrazine compound and pharmaceutical use thereof” (Astellas Pharma Inc., priority 2001, dated 2006)

Assays:
ddY mice = experiment: Anticatalepsy activity in mouse (haloperidol-induced catalepsy); assay type: in vivo; conditions: 3.2 mg/kg orally, ddY mice n=7; haloperidol 0.32 mg/kg i.p. 30 min later; measured 30 min after injection
Procedure: Test 2: Anticatalepsy Activity in Mouse [I] Test Method
The test compound (3.2 mg/kg) was administered orally with ddY mice (n=7). Then, haloperidol (0.32 mg/kg) was injected intraperitoneally 30 min. after the administration of the compound. Thirty min. after the injection, the cataleptic responses of mice were measured. The forelimbs of each mouse were placed on a 3 cm high, 3 mm wide horizontal bar, and the duration of cataleptic posture was measured for up to 30 sec.

human A2a receptor = human A2a receptor (Homo sapiens, UniProt P29274); experiment: Adenosine antagonistic activity, radioligand binding with [3H]CGS 21680; conditions: [3H]CGS 21680 20 nM
Chain of human A2a receptor (P29274 whole entry): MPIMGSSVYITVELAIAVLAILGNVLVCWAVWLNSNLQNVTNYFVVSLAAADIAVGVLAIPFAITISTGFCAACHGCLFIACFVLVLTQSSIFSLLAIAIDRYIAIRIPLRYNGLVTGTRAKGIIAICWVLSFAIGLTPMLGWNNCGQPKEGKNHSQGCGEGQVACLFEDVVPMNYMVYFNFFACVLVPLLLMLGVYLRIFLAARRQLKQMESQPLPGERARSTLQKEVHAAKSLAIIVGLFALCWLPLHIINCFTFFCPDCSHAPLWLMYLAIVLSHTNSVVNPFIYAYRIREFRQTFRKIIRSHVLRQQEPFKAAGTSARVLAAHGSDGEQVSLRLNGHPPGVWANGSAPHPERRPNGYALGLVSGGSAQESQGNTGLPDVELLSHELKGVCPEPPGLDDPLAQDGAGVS
Procedure: (§1) Test 1: Adenosine Antagonistic Activity
(§2) The adenosine antagonistic activity [Ki(nM)] of the test compound was examined by radioligand binding techniques using 8-cyclopentyl-1,3-dipropylxanthine, [dipropyl-2,3-^3H(N)] ([^3H]DPCPX, 4.5 nM) for human A1 receptor and [^3H]CGS 21680 (20 nM) for human A2a receptor.

human A1 receptor = target: T1, human A1 receptor (Homo sapiens, UniProt P30542); experiment: Adenosine antagonistic activity, radioligand binding with [3H]DPCPX; conditions: [3H]DPCPX 4.5 nM
T1 sequence (P30542 1-326): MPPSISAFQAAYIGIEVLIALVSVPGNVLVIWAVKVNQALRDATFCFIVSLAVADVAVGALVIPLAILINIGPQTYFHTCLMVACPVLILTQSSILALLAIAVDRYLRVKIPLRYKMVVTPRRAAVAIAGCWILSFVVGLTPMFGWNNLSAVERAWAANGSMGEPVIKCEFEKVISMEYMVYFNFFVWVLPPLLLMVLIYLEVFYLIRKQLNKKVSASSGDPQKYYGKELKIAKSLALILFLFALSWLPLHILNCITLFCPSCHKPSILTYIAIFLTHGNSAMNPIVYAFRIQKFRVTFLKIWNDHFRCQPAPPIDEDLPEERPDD
Procedure: as §1, §2

Row | SMILES | melting point | Ki (human A2a receptor) | Ki (human A1 receptor) | Manifestation rate of catalepsy (number of mouse) (ddY mice)
1 | O=c1ccc(-c2c(-c3ccccc3)nn3ccncc23)c[nH]1 [Example 1, 3-(2(1H)-pyridinon-5-yl)-2-phenylpyrazolo[1,5-a]pyrazine] | > 250 °C | 0.68 nM | 0.18 nM | 1/7
2 | Cn1cc(-c2c(-c3ccccc3)nn3ccncc23)ccc1=O [Example 2, 3-(1-methyl-2(1H)-pyridinon-5-yl)-2-phenylpyrazolo[1,5-a]pyrazine] | 168 to 169 °C | 3.28 nM | 0.35 nM | 0/7
3 | CC(C)n1cc(-c2c(-c3ccccc3)nn3ccncc23)ccc1=O [Example 3, 3-(1-Isopropyl-2(1H)-pyridinon-5-yl)-2-phenylpyrazolo[1,5-a]pyrazine] | 196 to 197 °C | – | – | –
4 | Cn1cc(-c2c(-c3ccc(F)cc3)nn3ccncc23)ccc1=O [Example 7, 3-(1-Methyl-2(1H)-pyridinon-5-yl)-2-(4-fluorophenyl)pyrazolo[1,5-a]pyrazine] | 222 to 223 °C | – | – | –
5 | CCn1cc(-c2c(-c3ccc(F)cc3)nn3ccncc23)ccc1=O [Example 9, 3-(1-Ethyl-2(1H)-pyridinon-5-yl)-2-(4-fluorophenyl)pyrazolo[1,5-a]pyrazine] | 165 to 166 °C | 4.44 nM | 0.36 nM | 0/7
6 | Cn1cc(-c2c(-c3ccccc3F)nn3ccncc23)ccc1=O [Example 12, 3-(1-Methyl-2(1H)-pyridinon-5-yl)-2-(2-fluorophenyl)pyrazolo[1,5-a]pyrazine] | 193 to 194 °C | – | – | –

Now from value to molecule, other results behind:

Row | melting point | Ki (human A2a receptor) | Ki (human A1 receptor) | SMILES | Manifestation rate of catalepsy (number of mouse) (ddY mice)
7 | 192 to 193 °C | – | – | CCn1cc(-c2c(-c3ccccc3)nn3ccncc23)ccc1=O [Example 4, 3-(1-Ethyl-2 (1H)-pyridinon-5-yl)-2-phenylpyrazolo[1,5-a]pyrazine] | –
8 | 165 to 166 °C | – | – | CCCn1cc(-c2c(-c3ccccc3)nn3ccncc23)ccc1=O [Example 5, 3-(1-n-Propyl-2(1H)-pyridinon-5-yl)-2-phenylpyrazolo[1,5-a]pyrazine] | –
9 | 214 to 215 °C | – | – | CC(C)n1cc(-c2c(-c3ccc(F)cc3)nn3ccncc23)ccc1=O [Example 8, 3-(1-Isopropyl-2(1H)-pyridinon-5-yl)-2-(4-fluorophenyl)pyrazolo[1,5-a]pyrazine] | –
10 | 183 to 184 °C | – | – | CCCn1cc(-c2c(-c3ccc(F)cc3)nn3ccncc23)ccc1=O [Example 10, 3-(1-n-Propyl-2(1H)-pyridinon-5-yl)-2-(4-fluorophenyl)pyrazolo[1,5-a]pyrazine] | –
11 | 150 to 151 °C | – | – | CC(C)n1cc(-c2c(-c3ccccc3F)nn3ccncc23)ccc1=O [Example 13, 3-(1-Isopropyl-2(1H)-pyridinon-5-yl)-2-(2-fluorophenyl)pyrazolo[1,5-a]pyrazine] | –
12 | 173 to 174 °C | – | – | CCn1cc(-c2c(-c3ccccc3F)nn3ccncc23)ccc1=O [Example 14, 3-(1-Ethyl-2(1H)-pyridinon-5-yl)-2-(2-fluorophenyl)pyrazolo[1,5-a]pyrazine] | –
13 | 127 to 128 °C | – | – | CCCn1cc(-c2c(-c3ccccc3F)nn3ccncc23)ccc1=O [Example 15, 3-(1-n-Propyl-2(1H)-pyridinon-5-yl)-2-(2-fluorophenyl)pyrazolo[1,5-a]pyrazine] | –
